Measurements reported in patent publication US20240358767A1, “STEM CELL DIFFERENTIATION AND CHEMICAL COMPOUNDS” (VERTEX PHARMACEUTICALS INCORPORATED, priority 2021, published 2024).
Values joined by “and” are separate entries in the source; they are usually repeats but may differ in a detail not shown here. Identical values can stand only once. Like-named read-outs stand apart in the source and are kept apart here.

Assays:
Stem cells [1] = experiment: 384-well screen of small molecule compounds for Stage 1 differentiation to Sox17-positive definitive endoderm cells (immunostaining, DAPI); conditions: for signal in Oct 4 channel / signal in Sox17 channel: 10 ng/mL AA plus test compound, about 8 concentrations, dose-responsive manner; for Relative to 100 ng/mL AA (percentage of Sox17-positive cells normalized by the percentage with 100 ng/mL AA): Stage 1 condition with 10 ng/mL AA and the test compound, 384-well plates; for nuclear blebbing in the resulting cell population: visual inspection
human stem cells [2] = experiment: Version A differentiation, flow cytometry of Nkx6.1 and Isl1 at completion of Stage 5 (S5C); assay type: cell-based
Protocol: (§1) An exemplary base differentiation protocol, Version A, according to the present disclosure, was used for differentiating human stem cells into mature β cells capable of releasing insulin in response to glucose challenge in vitro.
(§2) Version A protocol is a 6-stage stepwise protocol. With Version A protocol, stem cells were treated with reagents in a manner similar to the Version A described in Example 1 of U.S. Patent Publication No. US20220090020A1, which is incorporated by reference herein in its entirety. In some experiments, Version A was modified such that 100 ng/mL Activin A at Stage 1 was replaced with a different concentration of Activin A as described below.
(§3) In one experiment, differentiation of the stem cells was initiated in spinner flasks using Version A protocol, and three different concentrations of Activin A (“AA”), 100 ng/mL (100%), 10 ng/mL (10%), and 5 ng/mL (5%), applied throughout the three days of Stage 1 were tested, while the remaining differentiation steps were kept the same. On QC days, e.g., upon completion of Stage 1 (“S1C”), completion of Stage 3 (“S3C”), or completion of Stage 5 (“S5C”), the cells were examined for their morphology and cell constituents. Specifically, 5 mL of cell cluster suspension solution were taken from the spinner flask, with 1 mL suspension aliquoted into a 24 well plate. Pictures of the cell clusters in the 24-well plate were taken under brightfield microscope. The cell clusters in the remaining 4 mL suspension were dispersed with TrypLE Express (Life Technologies; 12,604,013) at 37° C. for 20 min, fixed with 4% PFA for 20 mins at 4° C., blocked for 1 hour in FACS buffer (5% Donkey Serum and 0.05% Triton-100 in PBS) at room temperature, and stained with various antibodies against cell markers. Stained cells were then measured using an Accuri 6 flow cytometer (BD Biosciences) and analyzed using FlowJo software.
(§4) In one experiment, four different conditions for Stage 1 differentiation were tested: 100% Activin A, 10% Activin A, 10% Activin A plus GSK-690693 (“GSK”), or 10% Activin A plus BYL719 (“BYL”). Characterization of cell morphology and cell constituents were conducted similarly as described in EXAMPLE 1. The experiment was repeated for four times. Table 3 summarizes the quantification of flow cytometry analysis results at S1C, S3C, and S5C, and total viable cell yield at S5C for the four runs. In all the four runs, 0.1 μM […] or 0.04 μM BYL719 was applied for 3 days of Stage 1, except that in the last two runs, Run 4 and Run 5, 0.04 μM of BYL719 was applied for only 2 days (days S1d1 and S1d2).
(§5) In one experiment, six different conditions for Stage 1 differentiation were tested: 100% Activin A, 10% Activin A, 10% Activin A plus GSK-690693, 10% Activin A plus BYL719, 10% Activin A plus GSK-690693 and BYL719, or 100% Activin A plus GSK-690693 and BYL719. Characterization of cell morphology and cell constituents were conducted similarly as described in EXAMPLE 1. FIGS. 2A-5E and Table 4 summarize the characterizations of the cells obtained under the six differentiation conditions at different stages.

human stem cells [3] = experiment: Total viable cell yield at S5C; assay type: cell-based; conditions: 0.1 μM GSK for 3 days of Stage 1 plus 10% AA, Runs 4-5, listed as GSK
Protocol: as §1, §2, §4

human stem cells [4] = experiment: Version A differentiation, flow cytometry of Pdx1, Cdx2 and Sox2 at completion of Stage 3 (S3C); assay type: cell-based
Protocol: as §1, §2, §3, §4, §5

human stem cells [5] = experiment: Version A differentiation, flow cytometry of Nkx6.1 and Isl1 on day 7 of Stage 6 (S6d7); assay type: cell-based; conditions: for Markers on S6d7 Isl1 + /Nkx6.1+ / Markers on S6d7 Isl1 + /Nkx6.1−: 10% AA plus the compound(s) at Stage 1
Protocol: as §1, §2, §3, §5
In another experiment, the effects of the aforementioned six different conditions for Stage 1 differentiation on Stage 6 differentiation were tested under two Stage 6 medium regimens: regimen 1 (Table 5) and regimen 2 (Table 6).

human stem cells [6] = experiment: Stage 1 differentiation of stem cells (Version A protocol), flow cytometry of Oct4 and Sox17 at completion of Stage 1 (S1C); assay type: cell-based
Protocol: as §1, §2, §3
In another experiment, a dose-response test was conducted to examine the effects of different concentrations of Activin A at Stage 1 on stem cell differentiation. Five different concentrations of Activin A were tested: 100 ng/mL (100%), 20 ng/mL (20%), 10 ng/mL (10%), 5 ng/mL (5%), and 0 ng/mL (0%).
as §4, §5

Stem cells [7] = test system: Stem cells
EZH2 = EZH2 (Homo sapiens, UniProt Q15910); conditions: cited from earlier work
EZH2, sequence (Q15910 whole entry, species assumed): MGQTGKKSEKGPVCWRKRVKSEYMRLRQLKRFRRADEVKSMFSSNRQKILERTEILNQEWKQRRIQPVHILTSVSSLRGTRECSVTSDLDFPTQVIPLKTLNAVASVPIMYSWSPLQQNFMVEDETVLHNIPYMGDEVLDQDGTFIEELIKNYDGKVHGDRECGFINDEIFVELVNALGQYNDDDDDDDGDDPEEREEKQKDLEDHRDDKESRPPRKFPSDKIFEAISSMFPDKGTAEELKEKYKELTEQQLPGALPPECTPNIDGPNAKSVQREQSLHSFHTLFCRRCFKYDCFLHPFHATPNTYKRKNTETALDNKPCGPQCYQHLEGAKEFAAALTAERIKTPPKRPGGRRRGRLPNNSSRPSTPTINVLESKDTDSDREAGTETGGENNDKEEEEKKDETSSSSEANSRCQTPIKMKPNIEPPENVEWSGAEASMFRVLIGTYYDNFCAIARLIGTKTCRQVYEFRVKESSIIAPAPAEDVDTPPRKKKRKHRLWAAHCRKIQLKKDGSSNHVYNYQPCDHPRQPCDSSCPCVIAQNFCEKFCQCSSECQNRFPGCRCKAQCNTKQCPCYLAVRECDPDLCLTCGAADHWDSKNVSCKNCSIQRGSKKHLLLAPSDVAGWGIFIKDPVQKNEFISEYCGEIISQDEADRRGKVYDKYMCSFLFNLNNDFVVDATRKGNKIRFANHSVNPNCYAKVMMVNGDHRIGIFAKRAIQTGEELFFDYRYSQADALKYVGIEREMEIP
EZH2, sequence (O75530 whole entry partner, species assumed): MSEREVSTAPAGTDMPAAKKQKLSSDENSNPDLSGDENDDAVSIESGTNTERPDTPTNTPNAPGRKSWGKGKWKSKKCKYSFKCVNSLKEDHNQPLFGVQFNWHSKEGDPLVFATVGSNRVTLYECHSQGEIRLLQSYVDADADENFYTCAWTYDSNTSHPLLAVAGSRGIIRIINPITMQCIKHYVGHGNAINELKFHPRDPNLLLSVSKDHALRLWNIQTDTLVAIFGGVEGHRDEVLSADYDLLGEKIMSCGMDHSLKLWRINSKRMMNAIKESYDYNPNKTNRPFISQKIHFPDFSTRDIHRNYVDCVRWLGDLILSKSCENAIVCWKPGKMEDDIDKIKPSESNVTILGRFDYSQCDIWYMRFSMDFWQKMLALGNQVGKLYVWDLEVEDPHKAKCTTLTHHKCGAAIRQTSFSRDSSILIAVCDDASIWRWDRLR
EZH2, sequence (Q15022 whole entry partner, species assumed): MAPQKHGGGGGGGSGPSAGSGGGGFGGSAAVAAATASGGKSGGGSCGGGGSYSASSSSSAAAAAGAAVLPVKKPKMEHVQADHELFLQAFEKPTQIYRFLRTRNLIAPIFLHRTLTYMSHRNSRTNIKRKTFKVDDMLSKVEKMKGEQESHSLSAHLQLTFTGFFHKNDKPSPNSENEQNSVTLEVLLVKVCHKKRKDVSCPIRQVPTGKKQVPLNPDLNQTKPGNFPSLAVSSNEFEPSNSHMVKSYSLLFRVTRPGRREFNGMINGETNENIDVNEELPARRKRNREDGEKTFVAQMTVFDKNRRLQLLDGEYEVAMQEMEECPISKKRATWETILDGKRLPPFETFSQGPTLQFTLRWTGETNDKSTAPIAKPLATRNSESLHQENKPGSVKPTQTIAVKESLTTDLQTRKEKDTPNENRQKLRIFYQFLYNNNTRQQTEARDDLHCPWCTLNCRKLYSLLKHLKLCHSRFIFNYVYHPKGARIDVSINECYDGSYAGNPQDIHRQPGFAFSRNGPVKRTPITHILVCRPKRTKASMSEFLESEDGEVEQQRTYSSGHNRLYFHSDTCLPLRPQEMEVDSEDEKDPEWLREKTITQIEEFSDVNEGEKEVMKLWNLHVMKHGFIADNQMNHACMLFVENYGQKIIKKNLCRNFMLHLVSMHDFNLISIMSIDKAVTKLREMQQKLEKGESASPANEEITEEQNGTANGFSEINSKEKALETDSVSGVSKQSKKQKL

[8] = 0.1 μM GSK for 3 days of Stage 1 plus 10% AA (10 ng/mL Activin A), Runs 3-5, listed as GSK
[9] = 10% AA (10 ng/mL Activin A) plus the compound(s) at Stage 1

SMILES	signal in Oct 4 channel (Stem cells [1])	signal in Sox17 channel (Stem cells [1])	Relative to 100 ng/mL AA (percentage of Sox17-positive cells normalized by the percentage with 100 ng/mL AA) (Stem cells [1]) [%]	nuclear blebbing in the resulting cell population (Stem cells [1])	also measured
Cc1c(CN2CCN(S(C)(=O)=O)CC2)sc2c(N3CCOCC3)nc(-c3cnc(N)nc3)nc12 [GNE-477]	decrease	increase	160	not to induce	
CCn1c(-c2nonc2N)nc2c(C#CC(C)(C)O)ncc(OC[C@H]3CCCNC3)c21 [GSK-690693]	decrease	increase	119	not to induce	S5C Nkx6.1+/Isl1+ (human stem cells [2]; [8]): 31.1 and 35.6 and 28.5; S5C Nkx6.1+/Isl1+ (human stem cells [2]; [9]): 28.5%; St5C yield (human stem cells [3]): 3.02e+06 mL⁻¹ and 5.4416e+06 mL⁻¹; S3C Pdx1 (human stem cells [4]; [8]): 57.5 and 91.1 and 89.4; S3C Pdx1 + /Cdx2+ (human stem cells [4]; [9]): 6.70%; S3C Pdx1 + /Sox2+ (human stem cells [4]; [9]): 37.3%; S6d7 Nkx6.1 + /Isl1+ (human stem cells [5]; 10% AA (10 ng/mL Activin A) plus the compound(s) at Stage 1, day 7 of Stage 6): 34.8%; Markers on S6d7 Isl1 + /Nkx6.1+ (human stem cells [5]; Stage 6 Regimen 1): 34.8; Markers on S6d7 Isl1 + /Nkx6.1− (human stem cells [5]; Stage 6 Regimen 1): 8.17; Markers on S6d7 Isl1 + /Nkx6.1+ (human stem cells [5]; Stage 6 Regimen 2): 36.3; Markers on S6d7 Isl1 + /Nkx6.1− (human stem cells [5]; Stage 6 Regimen 2): 8.17; S1C Sox17+/Oct4− (human stem cells [6]; 0.1 μM GSK for 3 days of Stage 1 plus 10% AA (10 ng/mL Activin A), Runs 2-5, listed as GSK): 69 and 84.9 and 91.6 and 60; S1C Sox17 + /Oct4+ (human stem cells [6]; [9]): 2.86%; S1C Sox17+/Oct4− (human stem cells [6]; [9]): 91.6%
CC(C)N1CCN(Cc2cnc(-c3cc(-c4cccc5[nH]ccc45)cc4[nH]ncc34)o2)CC1 [Nemiralisib]	decrease	increase		not to induce	
COc1ncc(-c2ccc3nccc(-c4ccnnc4)c3c2)cc1NS(=O)(=O)c1ccc(F)cc1F [Omipalisib]	decrease	increase	75	not to induce	
Cc1nc2c(-c3cnc(N)nc3)nc(N3CCOCC3)nc2n1C(C)C [VS-5584]					nuclear blebbing in the resulting cell population (Stem cells [7]): not to induce
Nc1nc(-c2nn(Cc3ccccc3F)c3ncccc23)ncc1C1CC1 [BAY 41-2272]	decrease	increase	145	not to induce	
O=C(Nc1cccc2cccnc12)c1ccc(N2C(=O)[C@@H]3[C@H](C2=O)[C@@H]2C=C[C@H]3C2)cc1 [IWR-1-endo]	decrease	increase			nuclear blebbing in the resulting cell population (Stem cells [7]): not to induce
COc1ccc(-c2sc(NC(=O)C(C)(C)C)nc2C)cc1S(=O)(=O)Nc1ccc(O)cc1 [PI4KIIIbeta-IN-10]	decrease	increase		not to induce	
CCN1CCN(Cc2ccc(C(=O)Nc3ccc(C)c(Oc4ccc5c(c4)CC(=O)N5)c3)cc2C(F)(F)F)CC1 [DDR1-IN-1]	decrease	increase	120	not to induce	
O=C(c1ccc(-c2nc3ccc(F)cc3o2)cc1)N1CCN(C(=O)C2(O)CC2)CC1 [FT113]			64		
COc1ccc(-c2ccc3c(N4CCOC[C@@H]4C)nc(N4CCOC[C@@H]4C)nc3n2)cc1CO [AZD8055]	decrease	increase	117	not to induce	
CCCc1cc(C)[nH]c(=O)c1CNC(=O)c1cc(-c2ccc(N3CCN(C(C)C)CC3)nc2)cc2c1cnn2C(C)C [UNC1999]					selectivity compared with GSK126 (EZH2): less selective
CC(C)n1c([C@H](C)Nc2ncnc(N)c2C#N)cc2cccc(-c3ccc(=O)n(C)c3)c2c1=O [IPI-3063]	decrease	increase	130	not to induce	
Cc1c(CN2CCN(C(=O)[C@H](C)O)CC2)sc2c(N3CCOCC3)nc(-c3cnc(N)nc3)nc12 [Apitolisib]			168		
CC[C@H](C)n1cc(C)c2c(C(=O)NCc3c(C)cc(C)[nH]c3=O)cc(-c3ccc(N4CCNCC4)nc3)cc21 [GSK126]					selectivity over EZH1 (EZH2; EZH2 vs EZH1): 150 fold
Nc1ccc(C(=O)Nc2cccc(-c3nc(N4CCOCC4)c4oc5ncccc5c4n3)c2)cn1 [YM201636]	decrease	increase			
